{
  "source": "patent US12600696B2",
  "about": "(XENIOPRO GMBH, priority 2017, dated 2026)",
  "assay_type_in_all_cases": "cell-based",
  "key": {"[1]": {"test_system": "HeLa cells (human cervical adenocarcinoma cells)", "assay": "alamarBlue proliferation assay with HeLa cells", "conditions": "relative to DMSO basis level 1.0", "description": "The antiproliferative activities of compounds falling under formula I, formula II, formula III, formula IV and formula V were investigated on cells or cell lines originating from a disorder of the myeloid cell compartment, the neuroendocrine system, the cervix, and the mucosal epithelium, as well as from the skin epithelium. To this end, HL-60 cells, TT cells, HeLa cells, CAL-27 cells and human primary epidermal keratinocytes (HPEK) were seeded into 96-well plates suitable for fluorescence assays (CORNING #3598) at following initial cell numbers: 1000 cells per well for HL-60; 9000 cells per well for TT; 2000 cells per well for HeLa, 2000 cells per well for CAL-27, 2000 cells per well for HPEK. […] The readout was taken with a multi-well plate-reader in the fluorescence mode with applying a filter for excitation at 560 nm (band width 10 nm) and for emission at 590 nm (band width 10 nm). […]\nThe assays were performed in duplicate or more replicates of independent single experiments each containing a six-fold replicate for every condition. For every individual plate, the measured fluorescence intensity values of the conditions with compound treatment were normalized against the corresponding equally weighted arithmetic mean of the fluorescence intensity values of the six DMSO treated control wells in order to obtain the relative values to a baseline level of 1.0. […]"}, "[2]": {"test_system": "HPEKp cells (human epidermal keratinocyte progenitors, pooled)", "assay": "alamarBlue proliferation assay with HPEKp cells", "conditions": "120 h, relative to DMSO basis level 1.0, read-out: weighted arithmetic mean (AVEw) of normalized fluorescence intensity, activity range", "outline": "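Pooled HPEKp cells in CnT-Prime medium, 2000 cells/well, were exposed to compound at 0.1% DMSO for 5 days. Growth was read by alamarBlue fluorescence (ex 560, em 590 nm) and normalized to the DMSO mean, with outliers excluded, as a weighted mean ± combined SD. Inhibition was judged at 10 μM, with mean+SD ≤0.9 as the criterion.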"}, "[3]": {"test_system": "BHY cells (human oral squamous cell carcinoma cells)", "assay": "alamarBlue proliferation assay with BHY cells", "conditions": "72 h, 3 days treatment, single assay (preliminary), relative to DMSO basis level 1.0, read-out: equally weighted arithmetic mean (AVE) of six normalized fluorescence intensity values, activity range (RES: AVEw)", "description": "Compounds were tested on BHY cells using the alamarBlue® proliferation assay in analogy to the above described method with seeding the cells at an initial number of 4000 cells per 96-well and a duration of treatment with compounds for 3 days.\nBHY cells were cultivated according to the protocol of the provider (but at 5% instead of 10% CO2) in DMEM medium (Fisherscientific, #11584456) containing 10% fetal bovine serum (Fisherscientific, #15517589).\nA compound is considered as a growth inhibitor of BHY cells, if—at a reference concentration of 40 μM—the equally weighted arithmetic mean (AVE) of the six normalized fluorescence intensity values after addition of the corresponding standard deviation amounts to 0.9 or lower, in particular to 0.8 or lower, 0.7 or lower, 0.6 or lower, 0.4 or lower, and 0.2 or lower, relative to the overall basis level of 1.0. The overall basis level was calculated as the weighted arithmetic mean (AVEw) of all normalized values from the DMSO control measurements. The corresponding combined standard deviation for the DMSO values amounts to less than 1·10^−2. The corresponding standard deviations for the tested compounds were calculated including the Gauß′ error propagation associated with the performed calculation for the normalization. The weighted arithmetic mean (AVEw) and the combined standard deviation for RES was calculated in analogy to DMSO. Outlier analyses were performed as described above."}},
  "data": [
    {"smiles": "Oc1ccc(C=Cc2cc(O)cc(O)c2)cc1", "note": "[RES, resveratrol, reference compound]", "values": [
      {"measurement": "weighted arithmetic mean (AVEw) of normalized fluorescence intensity, activity range", "setting": "[1]; 40 μM", "value": "0.4 ± 0.0"},
      {"measurement": "weighted arithmetic mean (AVEw) of normalized fluorescence intensity", "setting": "[1]; control RES at 20 μM", "value": "0.9 ± 0.0"},
      {"measurement": "activity at 10 µM", "setting": "[2]", "value": 40, "unit": "%"},
      {"measurement": "activity at 40 µM", "setting": "[3]", "value": 60, "unit": "%"}
    ]},
    {"smiles": "CC(C)c1ccc(Oc2ccc(C(=O)NO)cn2)cc1", "note": "[Compound 272, N-hydroxy-6-(4-isopropylphenoxy)nicotinamide]", "values": [
      {"measurement": "activity at 40 µM", "setting": "[3]", "value": "20 to 40", "unit": "%"}
    ]},
    {"smiles": "O=C(NO)c1ccc(Oc2ccc(C34CC5CC(CC(C5)C3)C4)cc2)nc1", "note": "[Compound 288, 6-(4-((3r,5r,7r)-adamantan-1-yl)phenoxy)-N-hydroxynicotinamide]", "values": [
      {"measurement": "activity at 40 µM", "setting": "[3]", "value": "20 to 40", "unit": "%"}
    ]},
    {"smiles": "O=C(NO)c1ccc(Oc2ccc(C3CCCCC3)cc2)nc1", "note": "[Compound 284, 6-(4-Cyclohexylphenoxy)-N-hydroxynicotinamide]", "values": [
      {"measurement": "activity at 40 µM", "setting": "[3]", "value": "20 to 40", "unit": "%"}
    ]},
    {"smiles": "O=C(NO)c1ccc(Oc2ccc(C34CC5CC(CC(C5)C3)C4)cc2)cc1", "note": "[Compound 186, 4-(4-(Adamantan-1-yl)phenoxy)-N-hydroxybenzamide]", "values": [
      {"measurement": "activity at 40 µM", "setting": "[3]", "value": "20 to 40", "unit": "%"}
    ]},
    {"smiles": "CCC(C)(C)c1ccc(Oc2ccc(C(=O)NO)cn2)cc1", "note": "[Compound 273, N-hydroxy-6-(4-(tert-pentyl)phenoxy)nicotinamide]", "values": [
      {"measurement": "activity at 10 µM", "setting": "[2]", "value": "0 to 20", "unit": "%"}
    ]},
    {"smiles": "NC(=O)c1ccc(Oc2ccc(C3CC4CCC3C4)cc2)cc1", "note": "(racemic) [Compound 159, (±)-4-(4-(Bicyclo[2.2.1]heptan-2-yl)phenoxy)benzamide]", "values": [
      {"measurement": "activity at 10 µM", "setting": "[2]", "value": "0 to 20", "unit": "%"}
    ]},
    {"smiles": "O=C(NO)c1ccc(Oc2ccc(C3CCCCC3)cc2)cc1", "note": "[Compound 182, 4-(4-cyclohexylphenoxy)-N-hydroxybenzamide]", "values": [
      {"measurement": "activity at 10 µM", "setting": "[2]", "value": "0 to 20", "unit": "%"},
      {"measurement": "activity at 40 µM", "setting": "[3]", "value": "20 to 40", "unit": "%"}
    ]},
    {"smiles": "O=C(NO)c1cnc(Oc2ccc(C3CCCCC3)cc2)c(F)c1", "note": "[Compound 644, 6-(4-Cyclohexylphenoxy)-5-fluoro-N-hydroxynicotinamide]", "values": [
      {"measurement": "activity at 10 µM", "setting": "[2]", "value": "0 to 20", "unit": "%"},
      {"measurement": "activity at 40 µM", "setting": "[3]", "value": "60 to 70", "unit": "%"}
    ]},
    {"smiles": "O=C(NO)c1ccc(Oc2ccc(C34CC5CC(CC(C5)C3)C4)cc2)c(F)c1", "note": "[Compound 544, 4-(4-(Adamantan-1-yl)phenoxy)-3-fluoro-N-hydroxybenzamide]", "values": [
      {"measurement": "activity at 40 µM", "setting": "[3]", "value": "20 to 40", "unit": "%"}
    ]},
    {"smiles": "CN(C)C(=O)c1ccc(Oc2ccc(C3CCCCC3)cc2)nc1", "note": "[Compound 334, 6-(4-cyclohexylphenoxy)-N,N-dimethylnicotinamide]", "values": [
      {"measurement": "activity at 10 µM", "setting": "[2]", "value": "60 to 70", "unit": "%"}
    ]},
    {"smiles": "CCC(C)(C)c1ccc(Oc2ccc(C(=O)NO)cc2)cc1", "note": "[Compound 171, N-hydroxy-4-(4-(tert-pentyl)phenoxy)benzamide]", "values": [
      {"measurement": "activity at 40 µM", "setting": "[3]", "value": "40 to 60", "unit": "%"}
    ]},
    {"smiles": "O=C(NO)c1ccc(Oc2ccc(C3CC4CCC3CC4)cc2)nc1", "note": "(stereo not drawn) [Compound 287, 6-(4-((1s,4s)-bicyclo[2.2.2]octan-2-yl)phenoxy)-N-hydroxynicotinamide]", "values": [
      {"measurement": "activity at 10 µM", "setting": "[2]", "value": "0 to 20", "unit": "%"}
    ]}
  ]
}
